The results in this text go back to patent publication US6790957B2, “Triazole derivatives useful in therapy” (Pfizer, Inc., priority 1996, dated 2004).

This data set in a line: Aqueous solubility of phosphate prodrugs compared with parent compounds. It counts as physicochemical. The settings on record: compounds of Examples in the form of their disodium salts.
The mark [1] stands for this setting: water (aqueous), read-out: Solubility.

Like-named read-outs stand apart in the source and are kept apart here.

By solubility is commonly meant the dissolved amount per volume that the medium holds. With `C[C@@H](c1ncncc1F)[C@@](Cn1cncn1)(OP(=O)(O)O)c1ccc(F)cc1F` [Example 3, (2R,3S)-2-(2,4-Difluorophenyl)-3-(5-fluoro-4-pyrimidinyl)-1-(1H-1,2,4-triazol-1-yl)-2-butyl dihydrogen phosphate], the solubility under setting [1] was above 150 mg/mL.
As to `C[C@@H](c1ccc(-c2ccnn2C)cc1)[C@@](Cn1cncn1)(OP(=O)([O-])[O-])c1ccc(F)cc1F.[Na+].[Na+]` [Example 8, (2R,3S)-2-(2,4-Difluorophenyl)-3-[4-(1-methylpyrazol-5-yl)phenyl]-1-(1,2,4-triazol-1-yl)-2-butyl disodium phosphate], the “solubility” value was above 50 mg/mL.
Consider `O=P(O)(O)OC(Cn1cncn1)(Cn1cncn1)c1ccc(F)cc1F` [Example 1, 2-(2,4-Difluorophenyl)-1,3-bis(1H-1,2,4-triazol-1-yl)-2-propyl Dihydrogen Phosphate], for which the solubility under setting [1] is above 150 mg/mL.
